This note sets out measurements from publication doi:10.1101/2021.10.07.463234v2 (biorxiv, 2021).

Counter-ions that a name gives are not always drawn.

In the first experiment the target is SARS-CoV-2 Mac1 (Severe acute respiratory syndrome coronavirus 2, UniProt P0DTD1). The experiment in a line: biochemical. Particulars: 100 µM; inhibitor.
`CCc1cc2c(cc1CC)CC(NC[C@H](O)c1ccc(O)c3[nH]c(=O)ccc13)C2` [Indacaterol]: the “%inhibition” value was determined as 1.05%.
Same read-out and setting: under `COc1ccc2c(c1)c(CC(=O)O)c(C)n2C(=O)c1ccc(Cl)cc1` [Indometacin Sodium] stands 0%; under `COc1ccc2c(c1)c(CC(=O)O)c(C)n2C(=O)c1ccc(Cl)cc1` [Indomethacin], 39.29%.

Staying with this experiment, now noted: read-out: %inhibition.
For `CC1Cc2ccccc2N1NC(=O)c1ccc(Cl)c(S(N)(=O)=O)c1` (stereo not drawn) [Indapamide], the inhibition at 100 µM was 36.3%.
The same measure, in the same setting: the same measure for `O=C1/C(=C2\Nc3ccc(S(=O)(=O)O)cc3C2=O)Nc2ccc(S(=O)(=O)O)cc21` [Indigo carmine]: 39.3%; for `O=C1/C(=C2\Nc3ccccc3C2=O)Nc2ccccc21` [Indigo]: 9.76%.
Regarding `NC(=O)c1ccc(I)c([N+](=O)[O-])c1` [Iniparib (BSI-201)], the inhibition at 100 µM is 31%.
On the same count and under the same terms, under `O=c1[nH]cnc2c1ncn2[C@@H]1O[C@H](CO)[C@@H](O)[C@H]1O` [Inosine] stands 0%.
In the case of `CC(=O)N(CC(O)CN(C(C)=O)c1c(I)c(C(=O)NC[C@@H](O)CO)c(I)c(C(=O)NC[C@@H](O)CO)c1I)c1c(I)c(C(=O)NC[C@@H](O)CO)c(I)c(C(=O)NC[C@@H](O)CO)c1I` [Iodixanol], the inhibition at 100 µM is 0.797%.
In the case of `C[C@H](O)C(=O)Nc1c(I)c(C(=O)NC(CO)CO)c(I)c(C(=O)NC(CO)CO)c1I` [Iopamidol], the inhibition at 100 µM worked out at 0%.
On to `CCC(Cc1c(I)cc(I)c(N)c1I)C(=O)O` (stereo not drawn) [Iopanoic acid], for which the inhibition at 100 µM is 0%.
The same measure, in the same setting: the same measure for `O=C(NCC(O)CO)c1c(I)c(C(=O)NCC(O)CO)c(I)c(N(CCO)C(=O)CO)c1I` (stereo not drawn) [Ioversol]: 25.5%; for `CC(C)[N+]1(C)[C@@H]2CC[C@H]1C[C@@H](OC(=O)C(CO)c1ccccc1)C2` (stereo partly drawn) [Ipratropium Bromide]: 9.25%; for `CC(C)Oc1ccc2c(=O)c(-c3ccccc3)coc2c1` [Ipriflavone (Osteofix)]: 0%.
Consider `CCCCC1=NC2(CCCC2)C(=O)N1Cc1ccc(-c2ccccc2-c2nnn[nH]2)cc1` [Irbesartan], for which the inhibition at 100 µM worked out at 2.32%.
With `CCc1c2c(nc3ccc(OC(=O)N4CCC(N5CCCCC5)CC4)cc13)-c1cc3c(c(=O)n1C2)COC(=O)[C@]3(O)CC` [Irinotecan HCl Trihydrate], the inhibition at 100 µM worked out at 0%.
For `Nc1nc(N)nc(-c2cc(Cl)ccc2Cl)n1` [Irsogladine], the inhibition at 100 µM worked out at 22.5%.
With `C[C@@H](c1nc(-c2ccc(C#N)cc2)cs1)[C@](O)(Cn1cncn1)c1cc(F)ccc1F` [Isavuconazole], the inhibition at 100 µM worked out at 0%.
As to `CN[C@@H]1[C@@H](O)[C@@H](O[C@@H]2[C@@H](O)[C@H](O[C@H]3O[C@H](CN)[C@@H](O)[C@H](O)[C@H]3O)[C@@H](N)C[C@H]2NC(=O)[C@@H](O)CN)OC[C@]1(C)O` [Isepamicin Sulphate], the inhibition at 100 µM stood at 5.6%.
As for `Clc1ccc(C(Cn2ccnc2)OCc2c(Cl)cccc2Cl)c(Cl)c1` (stereo not drawn) [Isoconazole nitrate], the inhibition at 100 µM stood at 34.7%.
Same read-out and setting: the same measure for `CCC(NC(C)C)C(O)c1ccc(O)c(O)c1` (stereo not drawn) [Isoetharine Mesylate]: 17.6%; for `NNC(=O)c1ccncc1` [Isoniazid]: 24.4%; for `CC(C)NCC(O)c1ccc(O)c(O)c1` (stereo not drawn) [Isoprenaline HCl]: 5.07%.
Regarding `O=[N+]([O-])O[C@@H]1CO[C@H]2[C@@H]1OC[C@@H]2O` [Isosorbide Mononitrate], the inhibition at 100 µM was determined as 2.49%.
With `O[C@@H]1CO[C@H]2[C@@H]1OC[C@@H]2O` [Isosorbide], the inhibition at 100 µM turned out to be 17.9%.
Regarding `CC1=C(/C=C/C(C)=C/C=C/C(C)=C\C(=O)O)C(C)(C)CCC1` [Isotretinoin], the inhibition at 100 µM amounted to 0%.
As for `Cc1cc(NC(=O)C2=C(O)c3ccccc3S(=O)(=O)N2C)no1` [Isoxicam], the inhibition at 100 µM is 13.6%.
Take `Cc1ccc(C(=O)N(CCCN)[C@@H](c2nc3cc(Cl)ccc3c(=O)n2Cc2ccccc2)C(C)C)cc1` [Ispinesib (SB-715992)]: the inhibition at 100 µM amounted to 0%.
In the case of `COC(=O)C1=C(C)NC(C)=C(C(=O)OC(C)C)C1c1cccc2nonc12` (stereo not drawn) [Isradipine], the inhibition at 100 µM is 0%.
For `CCn1c(=O)c2c(nc(/C=C/c3ccc(OC)c(OC)c3)n2C)n(CC)c1=O` [Istradefylline], the inhibition at 100 µM worked out at 28.9%.
With `COc1ccc(C(=O)NCc2ccc(OCCN(C)C)cc2)cc1OC` [Itopride hydrochloride], the inhibition at 100 µM worked out at 0%.
As to `COc1cc2c(cc1OC)CC(=O)N(CCCN(C)C[C@H]1Cc3cc(OC)c(OC)cc31)CC2` [Ivabradine HCl], the inhibition at 100 µM was 0%.
Same read-out and setting: under `CC(C)(C)c1cc(C(C)(C)C)c(NC(=O)c2c[nH]c3ccccc3c2=O)cc1O` [Ivacaftor (VX-770)] stands 5.97%; under `N#Cc1ccnc(N2C(=O)CC[C@H]2C(=O)N(c2cncc(F)c2)[C@H](C(=O)NC2CC(F)(F)C2)c2ccccc2Cl)c1` [Ivosidenib (AG-120)], 9.59%.
Take `C/C(=C\c1csc(C)n1)[C@@H]1C[C@@H]2O[C@]2(C)CCC[C@H](C)[C@H](O)[C@@H](C)C(=O)C(C)(C)[C@@H](O)CC(=O)N1` [Ixabepilone (BMS-247550)]: the inhibition at 100 µM was 5.68%.
`CC(C)C[C@H](NC(=O)CNC(=O)c1cc(Cl)ccc1Cl)B(O)O` [Ixazomib (MLN2238)]: the inhibition at 100 µM was 5.63%.
`CC(C)C[C@H](NC(=O)CNC(=O)c1cc(Cl)ccc1Cl)B1OC(=O)CC(CC(=O)O)(C(=O)O)O1` (stereo partly drawn) [Ixazomib Citrate (MLN9708)]: the inhibition at 100 µM stood at 0%.
Take `NC[C@H]1O[C@H](O[C@H]2[C@H](O)[C@@H](O[C@H]3O[C@H](CO)[C@@H](O)[C@H](N)[C@H]3O)[C@H](N)C[C@@H]2N)[C@H](O)[C@@H](O)[C@@H]1O` [Kanamycin sulfate]: the inhibition at 100 µM stood at 4.88%.
As for `O=C(c1ccc(F)cc1)C1CCN(CCn2c(=O)[nH]c3ccccc3c2=O)CC1` [Ketanserin], the inhibition at 100 µM is 11.6%.
For the molecule `CC(C(=O)O)c1cccc(C(=O)c2ccccc2)c1` (stereo not drawn) [Ketoprofen], the inhibition at 100 µM turned out to be 0%.
Regarding `O=C(c1ccccc1)c1ccc2n1CCC2C(=O)O` (stereo not drawn) [Ketorolac], the inhibition at 100 µM came to 11.8%.
For `CN1CCC(=C2c3ccccc3CC(=O)c3sccc32)CC1` [Ketotifen Fumarate], the inhibition at 100 µM is 0%.
As for `CNC[C@@H](O)c1ccc(O)c(O)c1` [L-Adrenaline], the inhibition at 100 µM came out at 31.6%.
Regarding `N=C(N)NCCC[C@H](N)C(=O)O` [L-Arginine HCl (L-Arg)], the inhibition at 100 µM is 0%.
In the case of `N[C@H]1CONC1=O` [L-Cycloserine], the inhibition at 100 µM was determined as 1.65%.
For `N[C@@H](CS)C(=O)O` [L-Cysteine HCl], the inhibition at 100 µM was 0%.
As for `N[C@@H](CCC(=O)O)C(=O)O` [L-Glutamic acid monosodium salt], the inhibition at 100 µM is 0%.
With `NC(=O)CC[C@H](N)C(=O)O` [L-Glutamine], the inhibition at 100 µM was determined as 0%.
Regarding `CC(C)C[C@H](N)C(=O)O` [L-Leucine], the inhibition at 100 µM was 0%.
On the same count and under the same terms, the same measure for `NCCCC[C@H](N)C(=O)O` [L-Lysine hydrochloride]: 9.1%.
For the molecule `NCCC[C@H](N)C(=O)O` [L-Ornithine], the inhibition at 100 µM amounted to 0%.

A word on the %inhibition: it is the share of the control response that was lost under treatment. Lower therefore signals a weak effect. By inhibition is commonly meant the drop in the measured response relative to a control, in per cent.
